US11274268B2, “Detergent compositions for removing heavy metals and formaldehyde” (FNG RESEARCH CO., LTD., priority 2017, dated 2022)

Tests used:
[1] = Formaldehyde removing ability test (GC); conditions: 2.0% formaldehyde solution, 3 molar equivalents, room temperature
[2] = test system: human skin; experiment: Skin irritation test of active ingredient (patch method, CTFA guidelines); assay type: in vivo; conditions: for Test result (number of subject) (+) / Test result (number of subject) (−) / Test result (number of subject) (++) / Test result (number of subject) (±): 20 subjects, 24 hours patch; for Test result (number of subject) (+): apparent reddening; for Test result (number of subject) (−): no erythema or symptoms; for Test result (number of subject) (++): reddened and swollen; for Test result (number of subject) (±): slightly reddish; for Degree of irritation: Equation 1
Experimental: A total of 20 people (10 men and 10 women in their 20s and 30s) were tested for skin irritation using the patch method according to the guidelines of CTFA (The Cosmetic, Toiletry & Fragrance Association, Inc. Washington, D.C.).
A filter paper disk was placed in an 8 mm diameter, 10 panels of pin chamber.
After 24 hours, the pin chamber was removed, and skin conditions were visually observed. The degree and grade for skin irritation were calculated according to the following Equation 1, and the results are shown in Table 3 below.
[Criteria for Skin Irritation]
(−): No erythema or particularly no symptoms; (±): slightly reddish than the periphery; (+): Apparent reddening than periphery; (++): More reddened and swollen than periphery.
[Grade for Skin Irritation]
Degree of irritation 0-0.1: Grade I (unstimulated);
Degree of irritation 0.11-0.3: Grade II (weakly stimulated);
Degree of irritation 0.31-0.5: Grade III (moderately stimulated);
Degree of irritation 0.51 or more: Grade IV (strongly stimulated)

Row | SMILES | Area (formaldehyde, GC) ([1]; 30 min) [mAU * min] | Area (formaldehyde, GC) ([1]; 180 min) [mAU * min] | Area (formaldehyde, GC) ([1]; Initial) [mAU * min] | Grade ([2]; content 0.1%) | Test result (number of subject) (+) ([2]; content 0.1%) | Test result (number of subject) (−) ([2]; content 0.1%) | Test result (number of subject) (++) ([2]; content 0.1%) | Test result (number of subject) (±) ([2]; content 0.1%) | Degree of irritation ([2]; content 0.1%) | Grade ([2]; content 0.5%) | Test result (number of subject) (+) ([2]; content 0.5%) | Test result (number of subject) (−) ([2]; content 0.5%) | Test result (number of subject) (++) ([2]; content 0.5%) | Test result (number of subject) (±) ([2]; content 0.5%) | Degree of irritation ([2]; content 0.5%) | Grade ([2]; content 1.0%) | Test result (number of subject) (+) ([2]; content 1.0%) | Test result (number of subject) (−) ([2]; content 1.0%) | Test result (number of subject) (++) ([2]; content 1.0%) | Test result (number of subject) (±) ([2]; content 1.0%) | also measured
1 | C1CNCCNCCNCCN1 [Cyclen, 1,4,7,10-tetraazacyclododecane] | 0.181 | 0 | 0.305 | I (Degree of irritation 0-0.1: Grade I (unstimulated)) | 0 | 20 | 0 | 0 | 0 | I (Degree of irritation 0-0.1: Grade I (unstimulated)) | 0 | 20 | 0 | 0 | 0 | II (Degree of irritation 0.11-0.3: Grade II (weakly stimulated)) | 1 | 18 | 0 | 1 | Degree of irritation ([2]; content 1.0%): 0.15
2 | O=C(O)CN(CCN(CCN(CC(=O)O)CC(=O)O)CC(=O)O)CCN(CC(=O)O)CC(=O)O [Embodiment 1, 3,6,9,12-tetrakis(carboxymethyl)-3,6,9,12-tetraazatetradecanedioic Acid] | 0.170 | 0 | 0.305 | I (Degree of irritation 0-0.1: Grade I (unstimulated)) | 0 | 20 | 0 | 0 | 0 | I (Degree of irritation 0-0.1: Grade I (unstimulated)) | 0 | 19 | 0 | 1 | 0.05 | II (Degree of irritation 0.11-0.3: Grade II (weakly stimulated)) | 0 | 16 | 0 | 4 | Degree of irritation ([2]; content 1.0%): 0.20
3 | O=C(O)c1ccc(N(CCN(CCN(c2ccc(C(=O)O)cc2)c2ccc(C(=O)O)cc2)c2ccc(C(=O)O)cc2)CCN(c2ccc(C(=O)O)cc2)c2ccc(C(=O)O)cc2)cc1 [Embodiment 2, 4,4′,4″,4′″-(((ethane-1,2-diylbis((4-carboxyphenyl)azanediyl))bis(ethane-2,1-diyl))bis(azanetriyl))tetrabenzoic Acid] | 0.168 | 0 | 0.305 | I (Degree of irritation 0-0.1: Grade I (unstimulated)) | 0 | 20 | 0 | 0 | 0 | I (Degree of irritation 0-0.1: Grade I (unstimulated)) | 0 | 20 | 0 | 0 | 0 | I (Degree of irritation 0-0.1: Grade I (unstimulated)) | 0 | 19 | 0 | 1 | Degree of irritation ([2]; content 1.0%): 0.05
4 | O=C(O)c1ccc(N(CCN(CCN(c2ccc(C(=O)O)o2)c2ccc(C(=O)O)o2)c2ccc(C(=O)O)o2)CCN(c2ccc(C(=O)O)o2)c2ccc(C(=O)O)o2)o1 [Embodiment 4, 5,5′,5″,5′″-(((ethane-1,2-diylbis((5-carboxyfuran-2-yl)azanediyl))bis(ethane-2,1-diyl))bis(azanetriyl))tetrakis(furan-2-carboxylic Acid)] | 0.173 | 0 | 0.305 | I (Degree of irritation 0-0.1: Grade I (unstimulated)) | 0 | 20 | 0 | 0 | 0 | I (Degree of irritation 0-0.1: Grade I (unstimulated)) | 0 | 20 | 0 | 0 | 0 | I (Degree of irritation 0-0.1: Grade I (unstimulated)) | 0 | 19 | 0 | 1 | Degree of irritation ([2]; content 1.0%): 0.05
5 | O=C(O)CN1CCN(CC(=O)O)CCN(CC(=O)O)CCN(CC(=O)O)CC1 [Embodiment 5, 2,2′,2″,2′″-(1,4,7,10-tetraazacyclododecane-1,4,7,10-tetrayl)tetraacetic Acid] | 0.179 | 0 | 0.305 | I (Degree of irritation 0-0.1: Grade I (unstimulated)) | 0 | 20 | 0 | 0 | 0 | I (Degree of irritation 0-0.1: Grade I (unstimulated)) | 0 | 20 | 0 | 0 | 0 | I (Degree of irritation 0-0.1: Grade I (unstimulated)) | 0 | 19 | 0 | 1 | Degree of irritation ([2]; content 1.0%): 0.05
6 | O=C(O)c1ccc(N2CCN(c3ccc(C(=O)O)cc3)CCN(c3ccc(C(=O)O)cc3)CCN(c3ccc(C(=O)O)cc3)CC2)cc1 [Embodiment 6, 4,4′,4″,4′″-(1,4,7,10-tetraazacyclododecane-1,4,7,10-tetrayl)tetrabenzoic Acid] | 0.183 | 0 | 0.305 | I (Degree of irritation 0-0.1: Grade I (unstimulated)) | 0 | 20 | 0 | 0 | 0 | I (Degree of irritation 0-0.1: Grade I (unstimulated)) | 0 | 20 | 0 | 0 | 0 | I (Degree of irritation 0-0.1: Grade I (unstimulated)) | 0 | 19 | 0 | 1 | Degree of irritation ([2]; content 1.0%): 0.05
